Measurements taken from patent publication US11713335B2, “Aminocoumarin compounds and methods of their use” (President and Fellows of Harvard College, priority 2018, dated 2023).
Values after ≈ are worked out from the molar mass of the structure shown. Like-named read-outs stand apart in the source and are kept apart here.

Key:
A. baumannii 19606 = assay: Minimal inhibitory concentration, A. baumannii 19606; assay type: cell-based; details: 16 hour minimal inhibitory concentration at 37° C., read-out: MIC (μM) A. baumannii 19606
How it was run: (§1)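 MIC, in µM, taken as the lowest compound concentration preventing growth by OD600 after 16 h static incubation at 37 °C. Compound was twofold serially diluted in bacteria grown overnight in LB, or TSA for S. aureus, and diluted 1:100 twice.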

E. coli 25922 = assay: Minimal inhibitory concentration, E. coli 25922; assay type: cell-based; details: 16 hour minimal inhibitory concentration at 37° C., read-out: MIC (μM) E. coli 25922
How it was run: as §1

S. aureus MW2 = assay: Minimal inhibitory concentration, S. aureus MW2; assay type: cell-based; details: 16 hour minimal inhibitory concentration at 37° C., read-out: MIC (μM) S. aureus MW2 (MRSA)
How it was run: as §1

E. cloacae 13047 = assay: Minimal inhibitory concentration, E. cloacae 13047; assay type: cell-based; details: 16 hour minimal inhibitory concentration at 37° C., read-out: MIC (μM) E. cloacae 13047
How it was run: as §1

S. aureus RN4220 = assay: Minimal inhibitory concentration, S. aureus RN4220; assay type: cell-based; details: 16 hour minimal inhibitory concentration at 37° C., read-out: MIC (μM) S. aureus RN4220
How it was run: as §1

K. pneumoniae 700721 = assay: Minimal inhibitory concentration, K. pneumoniae 700721; assay type: cell-based; details: 16 hour minimal inhibitory concentration at 37° C., read-out: MIC (μM) K. pneumoniae 700721
How it was run: as §1

E. coli MC4100 = assay: Minimal inhibitory concentration, E. coli MC4100; assay type: cell-based; details: 16 hour minimal inhibitory concentration at 37° C., read-out: MIC (μM) E. coli MC4100 ara+
How it was run: as §1

WT E. coli = assay: Minimal inhibitory concentration in wild-type E. coli; assay type: cell-based, Escherichia coli; details: wild-type E. coli, 37° C., 16 hours, read-out: MIC (μM) in WT E. coli
How it was run: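 Broth microdilution: saturated LB overnight culture diluted 1:100 twice, compound serially two-fold diluted across the plate from DMSO stock. Static incubation 16 hours at 37° C, OD600 read; MIC taken as lowest concentration inhibiting growth.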

[1] = Acinetobacter baumannii, 19606, 16 h
[2] = Staphylococcus aureus, MRSA, 16 h
[3] = Staphylococcus aureus, RN4220, 16 h

| SMILES | MIC (A. baumannii 19606) [µM] | MIC (E. coli 25922) [µM] | MIC (S. aureus MW2) [µM] | MIC (E. cloacae 13047) [µM] | MIC (S. aureus RN4220) [µM] | MIC (K. pneumoniae 700721) [µM] | MIC (E. coli MC4100) [µM] | MIC (WT E. coli) [µM] | MIC (A. baumannii 19606; [1]) [µM] | MIC (E. coli 25922; Escherichia coli, 25922, 16 h) [µM] | MIC (S. aureus MW2; [2]) [µM] | MIC (E. cloacae 13047; Enterobacter cloacae, 13047) [µM] | MIC (S. aureus RN4220; [3]) [µM] | MIC (K. pneumoniae 700721; Klebsiella pneumoniae, 700721) [µM] | MIC (E. coli MC4100; Escherichia coli, MC4100, 16 h) [µM] | MIC (WT E. coli; Escherichia coli) [µM] |
| --- | --- | --- | --- | --- | --- | --- | --- | --- | --- | --- | --- | --- | --- | --- | --- | --- |
| CO[C@@H]1[C@@H](OC(N)=O)[C@@H](O)[C@H](Oc2ccc3c(O)c(NC(=O)c4cc(-c5ccccc5)ccc4O)c(=O)oc3c2C)OC1(C)C [Compound 87] | >50 | 20 (≈ 12.4 µg/mL) | 20 (≈ 12.4 µg/mL) | >100 | 20 (≈ 12.4 µg/mL) | 40 (≈ 24.8 µg/mL) | 18 (≈ 11.2 µg/mL) | 18 (≈ 11.2 µg/mL) | – | – | – | – | – | – | – | – |
| CO[C@@H]1[C@@H](OC(N)=O)[C@@H](O)[C@H](Oc2ccc3c(O)c(NC(=O)c4cccc(Oc5ccccc5)c4)c(=O)oc3c2C)OC1(C)C [Compound 35] | – | – | – | – | – | – | – | – | > 50 | 10 (≈ 6.21 µg/mL) | 20 (≈ 12.4 µg/mL) | > 100 | 40 (≈ 24.8 µg/mL) | > 100 | 8 (≈ 4.96 µg/mL) | 8 (≈ 4.96 µg/mL) |
| CO[C@@H]1[C@@H](OC(N)=O)[C@@H](O)[C@H](Oc2ccc3c(O)c(NC(=O)c4cccc(-c5ccc(F)cc5)c4)c(=O)oc3c2C)OC1(C)C [Compound 28] | – | – | – | – | – | – | – | – | > 50 | 40 (≈ 24.9 µg/mL) | 5 (≈ 3.11 µg/mL) | 161 (≈ 100 µg/mL) | 5 (≈ 3.11 µg/mL) | 80 (≈ 49.8 µg/mL) | 26 (≈ 16.2 µg/mL) | 26 (≈ 16.2 µg/mL) |
| CO[C@@H]1[C@@H](OC(N)=O)[C@@H](O)[C@H](Oc2ccc3c(O)c(NC(=O)c4cccc(-c5ccc([N+](=O)[O-])cc5)c4)c(=O)oc3c2C)OC1(C)C [Compound 24] | >50 | 154 (≈ 100 µg/mL) | 5 (≈ 3.25 µg/mL) | >100 | 5 (≈ 3.25 µg/mL) | >100 | >200 | >300 | – | – | – | – | – | – | – | – |
| CO[C@@H]1[C@@H](OC(N)=O)[C@@H](O)[C@H](Oc2ccc3c(O)c(NC(=O)c4cccc(-c5ccccc5OC(F)(F)F)c4)c(=O)oc3c2C)OC1(C)C [Compound 59] | >50 | >200 | 5 (≈ 3.44 µg/mL) | >100 | 9 (≈ 6.2 µg/mL) | >100 | 40 (≈ 27.5 µg/mL) | 40 (≈ 27.5 µg/mL) | – | – | – | – | – | – | – | – |
| CO[C@@H]1[C@@H](OC(N)=O)[C@@H](O)[C@H](Oc2ccc3c(O)c(NC(=O)c4cc(-c5ccccc5)ccc4N)c(=O)oc3c2C)OC1(C)C [Compound 85] | >50 | 40 (≈ 24.8 µg/mL) | 2.5 (≈ 1.55 µg/mL) | >100 | 5 (≈ 3.1 µg/mL) | >100 | 59 (≈ 36.6 µg/mL) | 59 (≈ 36.6 µg/mL) | – | – | – | – | – | – | – | – |
| CO[C@@H]1[C@@H](OC(N)=O)[C@@H](O)[C@H](Oc2ccc3c(O)c(NC(=O)c4ccc(O)c(-c5ccc6ccccc6c5)c4)c(=O)oc3c2C)OC1(C)C [Compound 92] | 1.16 (≈ 0.778 µg/mL) | >200 | 0.09 (≈ 0.0604 µg/mL) | >100 | 0.09 (≈ 0.0604 µg/mL) | >100 | 150 (≈ 101 µg/mL) | 150 (≈ 101 µg/mL) | – | – | – | – | – | – | – | – |
| CO[C@@H]1[C@@H](OC(N)=O)[C@@H](O)[C@H](Oc2ccc3c(O)c(NC(=O)c4ccc(O)cc4)c(=O)oc3c2C)OC1(C)C [Compound 30] | – | – | – | – | – | – | – | – | > 50 | > 200 | 46 (≈ 25 µg/mL) | > 100 | 46 (≈ 25 µg/mL) | > 100 | > 200 | > 300 |
| CO[C@@H]1[C@@H](OC(N)=O)[C@@H](O)[C@H](Oc2ccc3c(O)c(NC(=O)c4cccc(-c5ccc(O)c(O)c5)c4)c(=O)oc3c2C)OC1(C)C [Compound 94] | >50 | >200 | 20 (≈ 12.7 µg/mL) | >100 | 20 (≈ 12.7 µg/mL) | >100 | >200 | >300 | – | – | – | – | – | – | – | – |
| CO[C@@H]1[C@@H](OC(N)=O)[C@@H](O)[C@H](Oc2ccc3c(O)c(NC(=O)c4ccc(O)c(-c5ccccc5)c4)c(=O)oc3c2C)OC1(C)C [Compound 83] | 20 (≈ 12.4 µg/mL) | 40 (≈ 24.8 µg/mL) | 2.5 (≈ 1.55 µg/mL) | >100 | 3 (≈ 1.86 µg/mL) | >100 | 26 (≈ 16.1 µg/mL) | 26 (≈ 16.1 µg/mL) | – | – | – | – | – | – | – | – |
| CO[C@@H]1[C@@H](OC(N)=O)[C@@H](O)[C@H](Oc2ccc3c(O)c(NC(=O)Cc4ccccc4)c(=O)oc3c2C)OC1(C)C [Compound 42] | >50 | >200 | >100 | >100 | >100 | >100 | >200 | >300 | – | – | – | – | – | – | – | – |
| CO[C@@H]1[C@@H](OC(N)=O)[C@@H](O)[C@H](Oc2ccc3c(O)c(NC(=O)c4cccc(-c5cccnc5)c4)c(=O)oc3c2C)OC1(C)C [Compound 29] | – | – | – | – | – | – | – | – | > 50 | > 200 | 83 (≈ 50.3 µg/mL) | > 100 | 83 (≈ 50.3 µg/mL) | > 100 | > 200 | > 300 |
| CO[C@@H]1[C@@H](OC(N)=O)[C@@H](O)[C@H](Oc2ccc3c(O)c(NC(=O)c4cc(O)c(O)c(-c5ccc(F)cc5)c4)c(=O)oc3c2C)OC1(C)C [Compound 95] | >50 | 38 (≈ 24.9 µg/mL) | 38 (≈ 24.9 µg/mL) | >100 | 38 (≈ 24.9 µg/mL) | >100 | 38 (≈ 24.9 µg/mL) | 38 (≈ 24.9 µg/mL) | – | – | – | – | – | – | – | – |
| CO[C@@H]1[C@@H](OC(N)=O)[C@@H](O)[C@H](Oc2ccc3c(O)c(NC(=O)/C=C/c4ccccc4)c(=O)oc3c2C)OC1(C)C [Compound 27] | – | – | – | – | – | – | – | – | > 50 | > 200 | 23 (≈ 12.8 µg/mL) | > 100 | 45 (≈ 25 µg/mL) | > 100 | > 200 | > 300 |
| CO[C@@H]1[C@@H](OC(N)=O)[C@@H](O)[C@H](Oc2ccc3c(O)c(NC(=O)c4ccccc4-c4ccccc4)c(=O)oc3c2C)OC1(C)C [Compound 40] | – | – | – | – | – | – | – | – | > 50 | > 200 | 41 (≈ 24.8 µg/mL) | > 100 | 41 (≈ 24.8 µg/mL) | > 100 | > 100 | > 300 |
| CO[C@@H]1[C@@H](OC(N)=O)[C@@H](O)[C@H](Oc2ccc3c(O)c(NC(=O)c4ccc[nH]4)c(=O)oc3c2C)OC1(C)C [Compound 15] | – | – | – | – | – | – | – | – | > 50 | > 200 | > 100 | > 100 | > 100 | > 100 | > 200 | > 300 |
